Laboratory results as given in US20250295732A1, “COMPOSITIONS AND METHODS FOR ACTIVATING INNATE IMMUNITY” (Zoetis Services LLC, priority 2021, published 2025).

Experiments:
[1] = tested on: bovine monocyte-derived macrophages; assay: mRNASeq transcriptome analysis; type: cell-based; details: for Number of significantly differentially expressed genes, P < 0.01 & |log2FC| > 1 / Number of significantly differentially expressed genes, P < 0.05 & |log2FC| > 1 / Number of significantly differentially expressed genes, Padj < 0.05 & |log2FC| > 0.585 / Number of significantly differentially expressed genes, Padj < 0.05 & |log2FC| > 1 / Number of significantly differentially expressed genes, Padj < 0.1 & |log2FC| > 1: CATH2_vs_vehicle
Description: (§1) Peripheral blood mononuclear cells (PBMC) were isolated from bovine blood using ficoll gradients. Bovine monocytes were isolated from PBMC using magnetic assisted cell sorting to positively select for CD14+ cells using anti-human CD14 microbeads (Miltenyi Biotec). Purified bovine blood CD14+ monocytes were differentiated into macrophages using an M2-skewing differentiation factor (recombinant bovine M-CSF) over 7 days then exposed to CATH2 or a vehicle control in the presence of bovine casein to mimic aspects of the mammary gland for 24 hr. Following treatment, vehicle and drug were removed and cells were washed to eliminate residual drug and monocyte-derived macrophages were rested for 3 days in order to assess reprogramming. Following the rest period, a subset of vehicle- and CATH2-trained monocyte-derived macrophages were assessed for epigenetic and transcriptomic changes. The remaining cells were challenged with LPS or E. coli bioparticle labeled with pH-sensitive pHrodo green dye and key parameters for macrophage activation/immune response were assessed including glycolytic activity, surface marker expression, gene expression, cytokine production, phagocytosis, reactive nitrogen species production, and miRNA profiling.
Bovine monocyte-derived macrophages were lysed in Buffer RLT with addition of (3-mercaptoethanol (QIAGEN) and stored at −80° C. until miRNA/mRNA isolations could be performed. Total RNA including miRNA was isolated from cell lysates using the miRNeasy Tissues/Cells Advanced kit (QIAGEN) following the manufacturer's instructions. mRNA and miRNA libraries were prepared using the TruSeq Stranded mRNA Library Prep Kit (Illumina) and QIAseq miRNA Library Kit, respectively (QIAGEN) according to the manufacturer's instructions. Libraries were run on the Illumina NextSeq550 System. Sequencing data were analyzed using CLC Genomics Workbench software and QIAGEN Ingenuity Pathway Analysis (IPA).

[2] = tested on: bovine monocyte-derived macrophages; assay: Reactive nitrogen species (nitrite, Griess Reagent System); type: cell-based; details: E. coli bioparticles 10 μg/mL 24 hours after CATH2 24 hr and 3-day rest; vs vehicle
Description: as §1, with “Following treatment, vehicle and drug were removed and cells were washed to eliminate residual drug and monocyte-derived macrophages were rested for 3 days in order to assess reprogramming.” left out, “profiling. Nitrite, a primary breakdown product of nitric oxide, in cell culture supernatant were quantified using Griess Reagent System (Promega) according to manufacturer's instructions.” for “profiling.”

[3] = 0 hrs_post_CATH2 (prior to CATH2 treatment)
[4] = 0 hrs_post_LPS (after CATH2 and 3-day rest)

RFGRFLRKIRRFRPKVTITIQGSARFG [CATH2, cathelicidin 2 peptide]
CD14 and CD80 gene expression (RNA sequence data) ([1]; 8 hr following LPS stimulation, CATH2 vs vehicle): significantly upregulated
Number of significantly differentially expressed genes, P < 0.01 & |log2FC| > 1 [1, 3]: 0
Number of significantly differentially expressed genes, P < 0.05 & |log2FC| > 1 [1, 3]: 0
Number of significantly differentially expressed genes, Padj < 0.05 & |log2FC| > 0.585 [1, 3]: 0
Number of significantly differentially expressed genes, Padj < 0.05 & |log2FC| > 1 [1, 3]: 0
Number of significantly differentially expressed genes, Padj < 0.1 & |log2FC| > 1 [1, 3]: 0
Number of significantly differentially expressed genes, P < 0.01 & |log2FC| > 1 [1, 4]: 169
Number of significantly differentially expressed genes, P < 0.05 & |log2FC| > 1 [1, 4]: 244
Number of significantly differentially expressed genes, Padj < 0.05 & |log2FC| > 0.585 [1, 4]: 171
Number of significantly differentially expressed genes, Padj < 0.05 & |log2FC| > 1 [1, 4]: 96
Number of significantly differentially expressed genes, Padj < 0.1 & |log2FC| > 1 [1, 4]: 134
Number of significantly differentially expressed genes, P < 0.01 & |log2FC| > 1 ([1]; 8 hrs_post_CATH2): 6
Number of significantly differentially expressed genes, P < 0.05 & |log2FC| > 1 ([1]; 8 hrs_post_CATH2): 27
Number of significantly differentially expressed genes, Padj < 0.05 & |log2FC| > 0.585 ([1]; 8 hrs_post_CATH2): 0
Number of significantly differentially expressed genes, Padj < 0.05 & |log2FC| > 1 ([1]; 8 hrs_post_CATH2): 0
Number of significantly differentially expressed genes, Padj < 0.1 & |log2FC| > 1 ([1]; 8 hrs_post_CATH2): 0
Number of significantly differentially expressed genes, P < 0.01 & |log2FC| > 1 ([1]; 8 hrs_post_LPS): 509
Number of significantly differentially expressed genes, P < 0.05 & |log2FC| > 1 ([1]; 8 hrs_post_LPS): 593
Number of significantly differentially expressed genes, Padj < 0.05 & |log2FC| > 0.585 ([1]; 8 hrs_post_LPS): 962
Number of significantly differentially expressed genes, Padj < 0.05 & |log2FC| > 1 ([1]; 8 hrs_post_LPS): 479
Number of significantly differentially expressed genes, Padj < 0.1 & |log2FC| > 1 ([1]; 8 hrs_post_LPS): 532
Number of significantly differentially expressed genes, P < 0.01 & |log2FC| > 1 ([1]; 24 hrs_post_CATH2): 11
Number of significantly differentially expressed genes, P < 0.05 & |log2FC| > 1 ([1]; 24 hrs_post_CATH2): 28
Number of significantly differentially expressed genes, Padj < 0.05 & |log2FC| > 0.585 ([1]; 24 hrs_post_CATH2): 0
Number of significantly differentially expressed genes, Padj < 0.05 & |log2FC| > 1 ([1]; 24 hrs_post_CATH2): 0
Number of significantly differentially expressed genes, Padj < 0.1 & |log2FC| > 1 ([1]; 24 hrs_post_CATH2): 0
Number of significantly differentially expressed genes, P < 0.01 & |log2FC| > 1 ([1]; 24 hrs_post_LPS): 328
Number of significantly differentially expressed genes, P < 0.05 & |log2FC| > 1 ([1]; 24 hrs_post_LPS): 393
Number of significantly differentially expressed genes, Padj < 0.05 & |log2FC| > 0.585 ([1]; 24 hrs_post_LPS): 520
Number of significantly differentially expressed genes, Padj < 0.05 & |log2FC| > 1 ([1]; 24 hrs_post_LPS): 279
Number of significantly differentially expressed genes, Padj < 0.1 & |log2FC| > 1 ([1]; 24 hrs_post_LPS): 330
DEG related to Rho family signaling ([1]; CATH2 vs vehicle): downregulated
Type I interferon induced genes (e.g. ISG15, MX2, OAS2) ([1]; CATH2 vs vehicle): significantly upregulated
Immune response gene expression (IL1A/B, IL6, IL8, IL12, IL23, CCL2, NOS2, IL10) ([1]; pre- and post-LPS after CATH2 treatment and 3-day rest, vs vehicle): significantly upregulated
RNS (nitrite) response to E. coli bioparticle challenge [2]: enhanced production of nitrogen oxide species/reactive nitrogen species (RNS) responses
